Some test systems named below: LOX IMVI melanoma; SK-OV-3 ovarian; MALME-3M melanoma; M14 melanoma; SW-620 colon; SF-539 CNS; NCI-H522 lung; NCI-H226 lung; HCT-15 colon; ACHN renal; PC-3 prostate; RPMI-8226 leukemia.
Holding throughout (assay): inhibition of tumour cell growth, NCI panel, 48 h

Among the data in PubChem BioAssay (NCI) are TGI values, retold here.

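Protocol summary: plate cells (96-well), add compound at 5 concentrations, incubate 48 h, interpolate endpoints linearly. TGI denotes the concentration required for complete inhibition of growth.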

Take `O=c1c2ccccc2nc(N/N=C/c2ccc(Cl)cc2)n1-c1ccccc1`: the TGI with LOX IMVI melanoma, in the experiment on SK-OV-3 ovarian, with MALME-3M melanoma, with M14 melanoma, in the experiment on SW-620 colon and in the experiment with SF-539 CNS was greater than 100 µM throughout. Also, the TGI in the experiment on NCI-H522 lung, with NCI-H226 lung, with HCT-15 colon, in the experiment with ACHN renal and in the experiment with PC-3 prostate was greater than 100 µM each time.

On to `COc1cc(OC)nc(-n2c(N)c(C(=O)O)c3ccc([N+](=O)[O-])cc3c2=O)n1`, for which the TGI with LOX IMVI melanoma, with SK-OV-3 ovarian, with MALME-3M melanoma, in the experiment with M14 melanoma, with SW-620 colon and with RPMI-8226 leukemia was greater than 100 µM in each case. Further, the TGI with NCI-H522 lung, with NCI-H226 lung, in the experiment on HCT-15 colon, in the experiment on ACHN renal and in the experiment on PC-3 prostate was greater than 100 µM each time.

Take `O=C(O)CCC(NC(=O)c1ccc(Oc2nc3ccccc3nc2-c2ccccc2)cc1)C(=O)O` (stereo not given): the TGI in the experiment with LOX IMVI melanoma, in the experiment with SK-OV-3 ovarian, in the experiment on MALME-3M melanoma, in the experiment with M14 melanoma, in the experiment on SW-620 colon and with SF-539 CNS was greater than 100 µM each time. The TGI in the experiment on NCI-H522 lung, with NCI-H226 lung, in the experiment on HCT-15 colon, with ACHN renal and in the experiment with PC-3 prostate was greater than 100 µM each time.

Turning to `COC(=O)CNC(=O)CSc1nnc(COc2ccc(Cl)cc2)n1-c1ccccc1`, the TGI with LOX IMVI melanoma, with SK-OV-3 ovarian, in the experiment on MALME-3M melanoma, with M14 melanoma, in the experiment on SW-620 colon and in the experiment with SF-539 CNS was greater than 100 µM in each case. The TGI with NCI-H522 lung is 34.7 µM; in the experiment on NCI-H226 lung, greater than 100 µM; with HCT-15 colon it was greater than 100 µM; in the experiment on ACHN renal, 55 µM; in the experiment with PC-3 prostate it was 51.2 µM.

For the molecule `COC(=O)c1cc2c(cc1C(=O)OC)[C@@]1(C)CCCC(C)(C)C1CC2` (stereo not given in full), the TGI in the experiment on LOX IMVI melanoma was found to be 36 µM; in the experiment with MALME-3M melanoma, 15.3 µM; with M14 melanoma, 70.8 µM; with SW-620 colon, 42.2 µM; in the experiment with SF-539 CNS, 95.7 µM; in the experiment with RPMI-8226 leukemia, 34.3 µM. The TGI in the experiment with NCI-H522 lung was 41.5 µM; in the experiment with NCI-H226 lung, 33.8 µM; in the experiment with HCT-15 colon it was 35.3 µM; in the experiment with ACHN renal it was 36.4 µM; in the experiment with PC-3 prostate, 51.1 µM.

For the molecule `NC(=O)NC(=O)c1cccc(NC(=O)CCl)c1`, the TGI was 2.17 µM in the experiment on LOX IMVI melanoma; 8.88 µM with SK-OV-3 ovarian; greater than 48.1 µM with MALME-3M melanoma; 18.9 µM with SW-620 colon; 1.5 µM with SF-539 CNS; 13.6 µM in the experiment on RPMI-8226 leukemia. The TGI in the experiment with NCI-H522 lung is 3.32 µM; with NCI-H226 lung, 5.28 µM; with HCT-15 colon, 9.73 µM; in the experiment with ACHN renal, 12.9 µM; with PC-3 prostate, 11.6 µM.

As to `COC1C(=O)N(SC)C1c1ccccc1Cl` (stereo not given), the TGI was greater than 100 µM in the experiment with LOX IMVI melanoma; greater than 100 µM with SK-OV-3 ovarian; 44.4 µM with MALME-3M melanoma; 94.2 µM in the experiment on M14 melanoma; 45.6 µM with SW-620 colon; 35.2 µM in the experiment on SF-539 CNS. The TGI in the experiment with RPMI-8226 leukemia is 44.5 µM; with NCI-H522 lung, 33.5 µM; with HCT-15 colon, 45.1 µM; in the experiment on ACHN renal it was 33.9 µM; with PC-3 prostate it was greater than 100 µM.

On to `CCOC(=O)c1ccc(N(CCOS(=O)(=O)c2ccc(C)cc2)CCOS(=O)(=O)c2ccc(C)cc2)cc1`, for which the TGI in the experiment with LOX IMVI melanoma is greater than 100 µM; with MALME-3M melanoma it was greater than 100 µM; in the experiment with M14 melanoma it was greater than 100 µM; in the experiment on SW-620 colon, greater than 100 µM; in the experiment with SF-539 CNS, 41.1 µM; in the experiment with RPMI-8226 leukemia it was greater than 100 µM. Besides, the TGI with NCI-H522 lung was greater than 100 µM; in the experiment on HCT-15 colon, greater than 100 µM; with ACHN renal, greater than 100 µM; in the experiment with PC-3 prostate, 75 µM.

Take `Oc1ccc(/C=N/c2nccs2)c(O)c1`: the TGI in the experiment on LOX IMVI melanoma, in the experiment on SK-OV-3 ovarian, with MALME-3M melanoma, with M14 melanoma, in the experiment with SF-539 CNS and in the experiment on NCI-H522 lung was greater than 100 µM throughout. Besides, the TGI in the experiment with NCI-H226 lung, with HCT-15 colon, with ACHN renal and in the experiment on PC-3 prostate was greater than 100 µM in each case.

As to `C1=Cc2cccc3occ(c23)C=C1`, the TGI in the experiment with LOX IMVI melanoma is 33.8 µM; with SK-OV-3 ovarian, greater than 100 µM; with MALME-3M melanoma, greater than 100 µM; with M14 melanoma, greater than 100 µM; with SW-620 colon it was greater than 100 µM; in the experiment with SF-539 CNS, greater than 100 µM. The TGI with NCI-H522 lung, in the experiment on NCI-H226 lung, in the experiment on HCT-15 colon, with ACHN renal and in the experiment with PC-3 prostate was greater than 100 µM each time.

For the molecule `CC[C@]1(Cc2ccc(OC)c(OC)c2)C=[N+]([O-])O[C@H](OCc2ccccc2)[C@@H]1OC(C)=O`, the TGI was 39.5 µM in the experiment on LOX IMVI melanoma; greater than 100 µM in the experiment on SK-OV-3 ovarian; 52.9 µM with MALME-3M melanoma; greater than 100 µM with M14 melanoma; greater than 100 µM in the experiment on SW-620 colon; 57.9 µM in the experiment on RPMI-8226 leukemia. Further, the TGI was 28.5 µM in the experiment with NCI-H522 lung; 53.8 µM with NCI-H226 lung; greater than 100 µM in the experiment with HCT-15 colon; greater than 100 µM in the experiment on ACHN renal; 64.3 µM with PC-3 prostate.

As to `N#Cc1c(N)c2c(c(-c3ccccc3)c1-c1ccccc1)C(=O)N(O)C2=O`, the TGI in the experiment on LOX IMVI melanoma, in the experiment on MALME-3M melanoma, in the experiment with M14 melanoma, in the experiment on SW-620 colon, with SF-539 CNS and in the experiment on RPMI-8226 leukemia was greater than 100 µM each time. Besides, the TGI in the experiment with NCI-H522 lung was greater than 100 µM; with NCI-H226 lung, 62.8 µM; in the experiment on HCT-15 colon it was greater than 100 µM; in the experiment on ACHN renal, greater than 100 µM; in the experiment with PC-3 prostate, 48.1 µM.
